Laboratory results as given in patent publication US20230263729A1, “POLY(ETHYLENE GLYCOL)-BLOCK-POLY(PROPYLENE SULFIDE) NANOCARRIER PLATFORM FOR ENHANCED EFFICACY OF IMMUNOSUPPRESSIVE AGENTS” (Northwestern University, priority 2019, published 2023).
≈ marks a conversion by molar mass, not a printed value. Where two headings read alike, the source gives them in different places.

Tests used:
[1] = system: BMDCs; experiment: BMDC activation and maturation in vitro (surface markers, IL12p70 ELISA); format: cell-based, C57BL/6 mice; details: aVD 10^−8 M; LPS and IFN-γ stimulation
Procedure: Assessment of BMDC activation and maturation in vitro—BMDCs were cultured at a density of 1×10^6/ml and were incubated at 37° C. with 5% CO2 for 10 days. Free aVD, aVD-loaded PS (PS-aVD) or aVD-loaded P-D2-PEG5-PS (P-D2-PEG5-PS-aVD) with the aVD concentration of 10^−8 M were added when the media was refreshed on days 3 and 6. On day 7, 10 ng/ml murine recombinant interferon (IFN-γ) and 1 μg/ml LPS were added to stimulate dendritic cell maturation. At day 10, BMDCs were collected, washed with PBS and then incubated with anti-mouse CD16/CD32 to block FcRs and Zombie Aqua fixable viability dye to determine live/dead cells for 20 min. Cells were washed with PBS and stained with antibody cocktail (CD11c, […] CD80, and CD86) (Table 1) for 35 min at 4° C. BMDC maturation was determined by characterizing the cell surface marker expression using FACSDiva on a LSRII flow cytometer (BD Biosciences). Over 20,000 events were recorded for each sample and data were analyzed with FlowJo software. Different concentrations of P-D2-PEG5-PS-aVD (aVD concentration=0, 10^−9, and 10^−8 M) were also investigated on BMDC maturation using the same procedure described above. […] IL12p70 secretion in supernatant of the cell culture in the last 48 h were determined by enzyme-linked immunosorbent assay (ELISA) following the manufacturer's instructions (Fisher Thermo Scientific).

[2] = system: atherosclerotic lesions; experiment: Atherosclerotic lesion quantification and immunohistochemistry after 8 weeks treatment; format: in vivo, ApoE−/− mice; details: total aVD dose 800 ng over 8 weeks
Procedure: Treatment—Male ApoE^−/− mice at 8-weeks of age were fed a high-fat diet (HFD, Harlan Teklad TD.88137, 42% kcal from fat) for 4 weeks. Treatments were performed from week 12 and 100 μl of different treatments: 1, PBS (control); 2, free aVD (1 μg/ml); 3, PS-aVD; 4, P-D2-PEG5-PS-aVD; 5, P210/P-D2-PEG5-PS-aVD (2, 3, 4, 5 groups with the same aVD concentration of 1 μg/ml) were subsequently i.v. administrated every week for 8 weeks. During those weeks, mice were maintained on a high-fat diet, and the activities and body weight was monitored. In vivo experiments were performed with group sizes of N=5-6 mice per group and then independently repeated for a total of N=10-12 mice per group.
Atherosclerotic lesion quantification and immunohistochemistry—For atherosclerotic lesion analysis, mice were anesthetized and aortas were carefully harvested after perfusion with PBS under a microscope. The heart with ascending aorta was fixed with 4% paraformaldehyde (PFA)/5% sucrose in PBS solution 12 h at 4° C. […] For quantitative analysis of atherosclerotic lesions, 5-7 separate cross-sections from each mouse were stained with Oil Red 0 (ORO) (Sigma) for 1 h at 37° C. and 4′,6-diamidino-2-phenylindole (DAPI) for 5 min. […] An in-house software written in Python was developed for automated and quantitative image analysis (FIG. 16) […]

[3] = system: atherosclerotic plaque; details: orally to mice, total dose 4800 ng over 12 weeks; cited from earlier work
[4] = Celastrol quantification by HPLC: solubility, encapsulation efficiency, loading capacity, release; format: physicochemical
Procedure: Celastrol quantification—Celastrol solubility, encapsulation efficiency, and loading capacity were all assessed using high performance liquid chromatography (HPLC) using a Thermo Scientific C18 reverse phase column, with dimethylformamide (DMF) as the mobile phase at 0.5 mL/min. Area under the curve quantification of celastrol absorbance at 280 nm was performed using Thermo Fisher Chromeleon 7 software. A celastrol standard curve was constructed, with good linearity between celastrol concentrations of 2 mg/mL to 12.5 μg/mL, with 6.25 μg/mL being too close to the limit of detection for inclusion in the standard curve.
To determine the loading capacity of celastrol in micelles, defined here as the highest achievable mass of celastrol that can be stably loaded into 1 mg of micelles in 100 μL of 1×PBS, 1 mg of celastrol was added to 1 mg of PEG45-b-PPS20-Benzyl polymer in 500 uL THF in an HPLC vial. THF was removed by vacuum desiccation and micelles were formed via thin film rehydration with 100 μL of 1×PBS. […] Both samples (column filtered and unfiltered) were then lyophilized and redissolved in 200 μL DMF and celastrol content was quantified via HPLC.
To determine the encapsulation efficiency of celastrol in micelles, defined as the percentage of the originally added celastrol mass that is stably encapsulated in micelles after filtration to remove unencapsulated celastrol, micelles were formed as described above with variable amounts of celastrol, and were filtered using an LH-20 column. Filtered micelles were lyophilized and redissolved in 200 μL DMF and celastrol content was quantified via HPLC.
To determine the solubility of celastrol in aqueous buffer, 1 mg of celastrol was added to a glass vial along with 10 mL of 1×PBS. […] The lyophilized powder was resuspended in 200 μL DMF and celastrol was quantified via HPLC.
Celastrol release from micelles into 1×PBS with or without oxidative trigger was determined as follows. […] Absorbance at 424 nm, an absorbance peak for celastrol, were taken using a SpectraMax M3 plate reader using a 96-well plate.

[5] = system: NF-κB; experiment: NF-κB inhibition assay in RAW Blue cells (SEAP reporter); format: cell-based; details: read-out: half maximal effective concentration (EC50), NF-κB inhibition
Procedure: Inhibition assays—NF-κB inhibition by celastrol was assayed using RAW Blue cells (Invivogen), a stably transfected cell line derived from RAW 264.7 macrophage-like cells, which contain the gene for secreted alkaline phosphatase (SEAP) downstream of the NF-κB promoter. Cells were seeded into a 96 well plate at 50,000 cells per well. NF-κB signalling was induced using 100 ng/mL LPS, with celastrol-loaded micelles and free celastrol (0.1% THF in 1×PBS vehicle) added to the cells concurrent with LPS administration. All micelle formulations contained the same amount of polymer (15 mg/mL) but were loaded with variable amounts of celastrol, and free celastrol formulations were prepared to match the concentration of loaded celastrol within Cel-MC formulations. Free celastrol formulation were made by diluting celastrol stock solutions in THF with 1×PBS to reach the appropriate celastrol concentration and 0.1% THF in 1×PBS. Cells were incubated for 16 hours, as per assay instructions, before supernatant was collected for quantification of SEAP activity, as described by the manufacturer. Colorimetric quantification of SEAP activity was performed on an M3 plate reader (SpectraMax) at an absorbance wavelength of 630 nm.

[6] = system: RAW 264.7 cells; experiment: Cytotoxicity assay (calcein-AM / ethidium homodimer); format: cell-based
Procedure: Cytotoxicity assays—RAW 264.7 cells were plated into a 96 well black wall plates at 50,000 cells per well. Cells were then treated with Cel-MC or free celastrol, formulated as described above for the inhibition assays. After 16 h of incubation with free celastrol or Cel-MC formulations, cells were washed and incubated with 4 μM calcein-AM and 2 μM ethidium homodimer (Thermo Fisher), as described by the manufacturer. Readings were performed on an M3 plate reader, at excitation/emission wavelengths of 488/530 nm and 488/635 nm for calcein and ethidium homodimer, respectively. Readings were normalized as described by the manufacturer, accounting for background fluorescence and setting 100% viability for untreated cells and 0% viability for cells incubated with 100% methanol for 15 minutes.

[7] = system: RAW 264.7 cells; experiment: Apoptosis of RAW 264.7 cells with or without LPS; format: cell-based; details: 1 μg/mL celastrol, 4 h
Procedure: Celastrol has been investigated as a potential anti-cancer therapeutic due to its ability to induce cell death, and potentially binds to a number of proteins involved in apoptosis. As the manner of cell death can influence the downstream immune response, the onset of apoptosis upon treatment with celastrol was evaluated. Since NF-κB signalling in RAW 264.7 cells results in the secretion of TNF-α (FIG. 27C), an inducer of apoptosis in some contexts as well as cell survival and proliferation in others, the effect of the presence or absence of LPS during celastrol treatment on the induction of apoptosis or necrosis was assessed.

[8] = in vivo; cited from earlier work

C=C1/C(=C\C=C2/CCC[C@]3(C)[C@@H]([C@H](C)CCCC(C)(C)O)CC[C@@H]23)C[C@@H](O)C[C@@H]1O [aVD, 1, 25-Dihydroxyvitamin D3]
expression of MHC-II, CD80 and CD86 by stimulated BMDCs [1]: significantly decreased expression | improvements in plaque area and macrophage content at the same dosage [2]: no | decrease in plaque area [3]: 39% | reduction in macrophage accumulation [3]: 29%

CC1=C(O)C(=O)C=C2C1=CC=C1[C@@]2(C)CC[C@@]2(C)[C@@H]3C[C@](C)(C(=O)O)CC[C@]3(C)CC[C@]12C [celastrol]
theoretical solubility in nanocarriers, times higher than unencapsulated celastrol [4]: over 10,000 times | theoretical celastrol ‘solubility’ in 1×PBS when loaded in PEG-b-PPS nanocarriers ([4]; 200 mg/mL of polymer, loading capacity 22%): 44000 µg/mL | solubility at 1 h ([4]; aqueous buffer, thermodynamic from solid, detected in 1 mL of 1×PBS at 37 C, read-out: celastrol dissolved in aqueous buffer (solubility)): 3.5 µg/mL (≈ 7.77 µM) | EC50 ([5]; 100 ng/mL LPS, 16 hours): 0.2 µg/mL (≈ 0.444 µM) | EC50 ([5]; LPS): 0.2 µg/mL (≈ 0.444 µM) | cell viability as the dosage of celastrol is decreased [6]: not | cytotoxicity to RAW 264.7 cells ([6]; 0.8 mg/mL celastrol): highly cytotoxic | apoptotic cells ([7]; in the absence of LPS): 16.5±1.8% | apoptotic cells ([7]; in the presence of LPS): 37.5±4.4% | serum half-life (T1/2β) [8]: 8 to 10 h
